The nature of the series: in vitro. The conditions noted are these: rat, gh3-tre-luc cells.

Structures can show the parent of a compound that is named as a salt.

Take `Nc1ccc(NC(=O)c2ccc(N)cc2)cc1` [4,4'-Diaminobenzanilide]: under “AC50 (uM) modified / 1000”, the CC50 (usually the concentration at which the toxic effect on the cells reaches its halfway point) at 24 h is over 90 µM.
Same read-out and setting: for `CC(=O)c1cccc([N+](=O)[O-])c1` [3-Nitroacetophenone] the value was over 90 µM; for `CCCCN(N=O)C(=N)N[N+](=O)[O-]` [N-Butyl-N'-nitro-N-nitrosoguanidine], 56.4 µM.
Same read-out and setting: for `O=C1[C@H](CC[C@H](O)c2ccc(F)cc2)[C@@H](c2ccc(O)cc2)N1c1ccc(F)cc1` [Ezetimibe] the value was over 50 µM; for `CCOC(=O)CC#N` [Ethyl cyanoacetate], over 90 µM.
On the same count and under the same terms, for `Clc1ccccc1-c1nc(-c2ccncc2)no1` [Pifexole] the value was over 50 µM; for `Cc1nc2ccccc2c(=O)o1` [2-Methyl-4H,3,1-benzoxazin-4-one], over 90 µM; for `O=C1CCC(c2ccc(-n3ccnc3)cc2)=NN1` [Imazodan], over 50 µM.
Regarding `Sc1ncccn1` [Pyrimidine-2-thiol], the CC50 at 24 h (AC50 (uM) modified / 1000) was over 90 µM.
Same read-out and setting: for `N[C@@H](CSCCCO)C(=O)O` [Fudosteine] the value was over 50 µM.
For the setting “AC50 (uM) modified / 1000”, `CC(C)c1ccccc1O` [2-Isopropylphenol] showed a CC50 at 24 h of over 90 µM.
For the compound `CC(CN(C)C)CN1c2ccccc2Sc2ccccc21` (stereo not shown) [Trimeprazine tartrate], it took 4.36 µM to reach half-maximal cytotoxicity (AC50 (uM) modified / 1000) (CC50 at 24 h).
For the compound `C=CC#N` [Acrylonitrile], the CC50 at 24 h by setting is: (AC50 (uM) modified / 1000, Tox21_110001=Tox21_202076, viability, 1 nM T3 present, 24 h) over 100 µM; (AC50 (uM) modified / 1000, Tox21_110001=Tox21_302951, viability, 1 nM T3 present, 24 h) over 90 µM.
For the compound `CCC(=O)O[C@H]1CC[C@H]2[C@@H]3CCc4cc(O)ccc4[C@H]3CC[C@]12C` [beta-Estradiol 17-propionate], half-maximal cytotoxicity (AC50 (uM) modified / 1000) (CC50 at 24 h) was put at 26.8 µM.
Still for that read-out and setting: the same measure for `BrCc1ccc(Br)cc1` [4-Bromobenzyl bromide]: over 90 µM.
On the same count and under the same terms, the same measure for `Cc1ccc(S(=O)(=O)NC(=O)NN2CC3CCC[C@@H]3C2)cc1` (stereo in doubt) [Gliclazide]: over 20 µM.
The same measure, in the same setting: the same measure for `CC(C)(C)C1CCC(=O)CC1` [4-tert-Butylcyclohexanone]: over 90 µM.
`O=C1CCCCC1` [Cyclohexanone] returned a CC50 at 24 h (AC50 (uM) modified / 1000) of over 100 µM.
Still for that read-out and setting: for `CCN=C1C=CC(=C(c2ccc(N(CC)CC)cc2)c2ccc(N(CC)CC)cc2)c2ccccc21` [Basic Blue 7] the value was 0.714 µM.
On the same count and under the same terms, for `NCCCC(N)(C(=O)O)C(F)F` (stereo not shown) [Eflornithine hydrochloride] the value was over 50 µM; for `CN[C@@H]1[C@@H](O)[C@@H](O[C@@H]2[C@H](O)[C@H](O[C@H]3OC(CN)=CC[C@H]3N)[C@@H](N)C[C@H]2N)OC[C@]1(C)O` [Pentisomicin], over 50 µM.
The compound `O=C(O)c1ccc(Cl)cc1Cl` [2,4-Dichlorobenzoic acid] registered a CC50 at 24 h (AC50 (uM) modified / 1000) of over 90 µM.
On the same count and under the same terms, the same measure for `C[C@@H]1C(=O)NC2=Nc3cccc(Cl)c3CN21` [Quazinone]: over 50 µM.
For the compound `CC(C)OC(=O)Cc1ccccc1` [Isopropyl phenylacetate], the CC50 at 24 h (AC50 (uM) modified / 1000, Tox21_110001=Tox21_201145, viability, 1 nM T3 present, 24 h) was over 90 µM.
Where the note is “AC50 (uM) modified / 1000”, `Nc1nc(Cl)nc2c1ncn2[C@@H]1O[C@H](CO)[C@@H](O)[C@@H]1F` [Clofarabine] gave a CC50 at 24 h of 0.263 µM.
Same read-out and setting: for `CCCN(CCC)C(=O)SCC` [EPTC] the value was over 100 µM.
The same measure, in the same setting: the same measure for `C=CC(C)(CCC=C(C)C)OC(=O)c1ccccc1` (stereo not shown) [Linalyl benzoate]: 53.7 µM; for `CC(C)CCCCCCCOP(=O)(Oc1ccccc1)Oc1ccccc1` [Isodecyl diphenyl phosphate]: 27.3 µM.
The same measure, in the same setting: the same measure for `O=c1[nH]c2ccccc2n1CCCN1CCC(n2c(=O)[nH]c3cc(Cl)ccc32)CC1` [Domperidone]: 40.2 µM; for `CC(CN(C)C)C(C)(O)Cc1ccc(Cl)cc1` (stereo not shown) [Clobutinol hydrochloride]: over 50 µM.
The compound `NCC[C@H](O)C(=O)N[C@@H]1C[C@H](N)[C@@H](O[C@H]2O[C@H](CN)[C@@H](O)[C@H](O)[C@H]2O)[C@H](O)[C@H]1O[C@H]1O[C@H](CO)[C@@H](O)[C@H](N)[C@H]1O` [Amikacin] returned a CC50 at 24 h (AC50 (uM) modified / 1000) of over 50 µM.
On to `C[Si](Cl)(c1ccccc1)c1ccccc1` [Chloro(methyl)diphenylsilane], for which the CC50 at 24 h (AC50 (uM) modified / 1000) was over 90 µM.
On the same count and under the same terms, the same measure for `C=O` [Formalin]: over 100 µM.

The values are drawn from PMC6792352, “Limited Chemical Structural Diversity Found to Modulate Thyroid Hormone Receptor in the Tox21 Chemical Library” (Environmental Health Perspectives, 2019).
